According to publication PMC9668928, “Zandelisib (ME-401) in Japanese patients with relapsed or refractory indolent non-Hodgkin’s lymphoma: an open-label, multicenter, dose-escalation phase 1 study” (International Journal of Hematology, 2022):
“And” between values parts separate entries of the source, which are not always exact repeats. Equal values may be shown once. “Also recorded” adds a separate entry of the source. Marks after values point to notes of the source that are not given here.

Key:
[1] = test system: patients with B-cell malignancies; conditions: phase 1b; cited from earlier work
[2] = Phase 1 study: plasma pharmacokinetics, non-compartmental analysis; type: in vivo, human; conditions: for pre-dose concentration, mean ± SD: 60 mg daily; for median tmax: after single and multiple doses
Excerpt: The primary endpoint was the safety [number of patients with treatment-emergent adverse events (TEAEs), based on Common Terminology Criteria for Adverse Events version 5.0] and tolerability (including laboratory values, vital signs, and electrocardiogram performance) of zandelisib in Japanese patients. Hepatobiliary disorder, aspartate/alanine (AST/ALT) increased, diarrhea/colitis, organizing pneumonia, stomatitis, or rash were defined as irAEs in this manuscript. Secondary endpoints included PK (plasma concentrations and PK parameters) and the efficacy of zandelisib. Blood samples for PK evaluation were collected at pre-dose, 1.5, 3, 5, 8, 10, 12 (optional), and 24 h post-dose on Cycle 1 day 1 and Cycle 2 day 1, and at pre-dose on Cycle 1 days 8, 15, and 22. The PK parameters for Cycle 1 day 1 and Cycle 2 day 1 were calculated for each patient by non-compartmental analysis. PK parameters included maximum plasma drug concentration (Cmax), area under the plasma concentration–time curve (AUC) from time zero to the last measurable point (AUC0–t), the AUC from time zero to infinity (AUC0-inf), and terminal half-life (t1/2).

[3] = test system: relapsed/refractory indolent non-Hodgkin's lymphoma (R/R iNHL); assay: Phase 1 study: anti-tumor efficacy, investigator-assessed, modified Lugano criteria; type: in vivo, human
Procedure: Efficacy endpoints included ORR; duration of response (DOR); progression-free survival (PFS); time to first response (TTR); and change in tumor size from baseline. Response was assessed by investigators based on the modified Lugano Classification lymphoma response criteria (modified Lugano criteria). If complete response (CR) was achieved by CT- or MRI-based assessment (not including bone marrow biopsy), PET/CT was performed to assess metabolic response (except for patients whose FDG-avidity was “non-avid” in the screening test). Additionally, a bone marrow biopsy was also performed if complete metabolic response was confirmed by PET/CT-based assessment. For efficacy outcomes, the Clopper–Pearson method was used to obtain 95% confidence intervals (CIs) for ORR. The Kaplan–Meier method was used to estimate the DOR and PFS for each cohort and overall. Statistical analyses were performed using SAS® software version 9.4 (SAS Institute Inc., Cary, NC, USA).

PI3Kδ = test system: PI3Kδ; parameters: method as in PMID 21378270, PMID 21803855, PMID 20959606, PMID 31506873; conditions: cited from earlier work
PI3Kδ signaling pathway = test system: PI3Kδ signaling pathway; parameters: method as in PMID 21378270, PMID 21803855, PMID 20959606, PMID 31506873; conditions: read-out: half maximal inhibitory concentration [IC50]; cited from earlier work
[4] = N = 9, median follow-up 17.5 months

CN1CCC(c2ccccc2CC(C)(C)Nc2nc(N3CCOCC3)nc(-n3c(C(F)F)nc4ccccc43)n2)CC1 [zandelisib]
dose-limiting toxicities (DLTs) [1]: No dose-limiting toxicities (DLTs) were reported | maximum tolerated dose (MTD) [1]: not reached | objective response rate (ORR) [1]: 79% | recommended phase 2 dose (RP2D) [1]: 60 mg/day | AUC0–inf, mean ± SD ([2]; 45 mg, Cycle 1 day 1, n = 2): 479 ± 112^c ng h/mL | t1/2, mean ± SD ([2]; 45 mg, Cycle 1 day 1, n = 2): 12.5 ± 0.8^c h | AUC0–t (24 h), mean ± SD ([2]; 45 mg, Cycle 1 day 1, n = 3): 304 ± 90 ng·h/mL | Cmax, mean ± SD ([2]; 45 mg, Cycle 1 day 1, n = 3): 27.5 ± 11.0 ng/mL | tmax, median (min–max) ([2]; 45 mg, Cycle 1 day 1, n = 3): 3.00 (2.88–9.53) h | t1/2, mean ± SD ([2]; 45 mg, Cycle 2 day 1, n = 2): 32.5 ± 10.3^c h | AUC0–t (24 h), mean ± SD ([2]; 45 mg, Cycle 2 day 1, n = 3): 601 ± 171 ng·h/mL | Cmax, mean ± SD ([2]; 45 mg, Cycle 2 day 1, n = 3): 46.4 ± 6.2 ng/mL | tmax, median (min–max) ([2]; 45 mg, Cycle 2 day 1, n = 3): 3.08 (2.95–7.98) h | pre-dose concentration, mean ± SD ([2]; Cycle 1 Day 8): 25.2 ± 8.2 ng/mL | pre-dose concentration, mean ± SD ([2]; Cycle 1 Day 15): 26.1 ± 9.6 ng/mL | pre-dose concentration, mean ± SD ([2]; Cycle 1 Day 22): 28.2 ± 9.5 ng/mL | pre-dose concentration, mean ± SD ([2]; Cycle 2 Day 1): 26.2 ± 13.1 ng/mL | AUC0–inf, mean ± SD ([2]; 60 mg, Cycle 1 day 1, n = 6): 731 ± 331 ng·h/mL | AUC0–t (24 h), mean ± SD ([2]; 60 mg, Cycle 1 day 1, n = 6): 435 ± 161 ng·h/mL | Cmax, mean ± SD ([2]; 60 mg, Cycle 1 day 1, n = 6): 36.6 ± 13.2 ng/mL | t1/2, mean ± SD ([2]; 60 mg, Cycle 1 day 1, n = 6): 16.4 ± 3.9 h | tmax, median (min–max) ([2]; 60 mg, Cycle 1 day 1, n = 6): 3.94 (3.00–7.83) h | t1/2, mean ± SD ([2]; 60 mg, Cycle 2 day 1, n = 5): 23.5 ± 10.9^d h | AUC0–t (24 h), mean ± SD ([2]; 60 mg, Cycle 2 day 1, n = 6): 974 ± 339 ng·h/mL | Cmax, mean ± SD ([2]; 60 mg, Cycle 2 day 1, n = 6): 62.8 ± 19.4 ng/mL | tmax, median (min–max) ([2]; 60 mg, Cycle 2 day 1, n = 6): 4.96 (2.83–8.00) h | dose proportionality of exposure (Cmax and AUC) ([2]; 45 and 60 mg): generally dose proportional up to 60 mg/day | exposures (Cmax and AUC) on Cycle 2 Day 1 versus Cycle 1 Day 1 ([2]; 45 and 60 mg): 1.5–2 fold | median tmax ([2]; 45 mg): 3 h | median tmax ([2]; 60 mg): ~ 4.96 h | time to PK steady state ([2]; daily dosing): PK reached steady state by Day 8; also recorded: reached steady state following 7 days of dosing | median PFS ([3]; 45 mg group): 11.1 months | Best overall response: Complete response ([3]; 45 mg, n = 3): 0 (0.0) n (%) | Best overall response: Partial response ([3]; 45 mg, n = 3): 3 (100.0) n (%) | Best overall response: Progressive disease ([3]; 45 mg, n = 3): 0 n (%) | Best overall response: Stable disease ([3]; 45 mg, n = 3): 0 n (%) | Objective response rate, % (95% CI) ([3]; 45 mg, n = 3): 100.0 (29.2–100.0) % | median DOR ([3]; 60 mg group): 11.3 months | median PFS ([3]; 60 mg group): 13.3 months | Best overall response: Complete response ([3]; 60 mg, n = 6): 2 (33.3) n (%) | Best overall response: Partial response ([3]; 60 mg, n = 6): 4 (66.7) n (%) | Best overall response: Progressive disease ([3]; 60 mg, n = 6): 0 n (%) | Best overall response: Stable disease ([3]; 60 mg, n = 6): 0 n (%) | Objective response rate, % (95% CI) ([3]; 60 mg, n = 6): 100.0 (54.1–100.0) % | median duration of response (DOR) [3, 4]: 7.9 months and 7.9 (95% CI 2.8–14.7) months | median progression-free survival (PFS) [3, 4]: 11.1 months and 11.1 (95% CI 4.6–16.7) months | median time to response (TTR) [3, 4]: 1.9 months and 1.9 (95% CI 1.8–2.1) months | complete response (CR) rate ([3]; N = 9, 2 FL patients receiving 60 mg/day): 22.2% and 22% | Best overall response: Complete response ([3]; Total, N = 9): 2 (22.2) n (%) | Best overall response: Partial response ([3]; Total, N = 9): 7 (77.8) n (%) | Best overall response: Progressive disease ([3]; Total, N = 9): 0 n (%) | Best overall response: Stable disease ([3]; Total, N = 9): 0 n (%) | Objective response rate, % (95% CI) ([3]; Total, N = 9): 100.0 (66.4–100.0) % | patients achieved response at week 8 ([3]; after 2 administration cycles): 8/9 | decrease from baseline in the sum of perpendicular diameters ([3]; all patients, N = 9): > 50% | best overall response of partial response (PR) ([3]; cohort 1, 45 mg): 3/3 | best overall response of CR ([3]; cohort 2, 60 mg): 2/6 | best overall response of PR ([3]; cohort 2, 60 mg): 4/6 | patients regained response after switching back from IDT to CS ([3]; of patients switched back to CS after PD): 2/4 | target binding (PI3Kδ): > 5 h | IC50 (PI3Kδ signaling pathway): 0.6 nM
